Measured values reported in article PMC4145793, “Inhibitory and Acceleratory Effects of Inonotus obliquus on Tyrosinase Activity and Melanin Formation in B16 Melanoma Cells” (Evidence-based Complementary and Alternative Medicine : eCAM, 2014).
In brackets after ≈: the same amount, converted by molar mass. Several values for one entry are separate records, joined by “and”; a condition that tells them apart may be missing. Identical values can stand only once. Like-named read-outs stand apart in the source and are kept apart here.

Columns and labels:
[1] = cell viability, MTT colorimetric assay; type: cell-based; conditions: mouse
Description: (§1) To determine the safety of the various compounds, after treatment with the test compounds cell viability was determined by using MTT colorimetric assay and cell apoptosis rate by using AnnexinV-FITC apoptosis analysis kit (Tianjin Sungene Biotech Co., Ltd). 1 × 10^6 cells were added to individual wells of a 24-well plate. […] Cell viability was determined in a colorimetric assay using mitochondrial dehydrogenase activity in active mitochondria to form purple formazan. Apoptosis rate in a fluorochrome assay using flow cytometry (BD, USA).

[2] = test system: B16 melanoma cells; experiment: cell viability, MTT colorimetric assay; type: cell-based; conditions: for reduction of viable cells: at the higher doses; for cytotoxic activity (reduction of viable cells): dose of 100 μM; for cytotoxic effect: 100, 200, 400 μM, as a whole
Description: as §1

[3] = test system: B16 melanoma cells; experiment: cell apoptosis rate, AnnexinV-FITC flow cytometry; type: cell-based; conditions: 72 h
Description: as §1

[4] = test system: cellular tyrosinase in B16 melanoma cells; experiment: cellular tyrosinase activity in B16 melanoma cells; type: cell-based; conditions: for inhibition at 400 µM: Mus musculus, read-out: inhibition on cellular tyrosinase activity; for effect on cellular tyrosinase activity: 100-400 μM
[5] = test system: B16 melanoma cells; experiment: cellular melanin content in B16 melanoma cells; type: cell-based; conditions: 100-400 μM, 72 h
Description: For melanin content, the cells were treated with test compounds or kojic acid in the presence or absence of α-MSH as described above. The cells were washed with PBS and lyzed with 800 μL of 1 N NaOH (Sigma, USA) containing 10% DMSO for 1 h at 80°C. The absorbance at 400 nm was measured. The melanin content was determined from a standard curve prepared from an authentic standard of synthetic melanin (Sigma, USA).

[6] = target: T1, tyrosinase in B16 melanoma cells (Mus musculus, UniProt P11344); experiment: kinetic analysis of tyrosinase activity inhibition, B16 lysate protein, L-DOPA substrate, Lineweaver-Burk plot; type: biochemical; conditions: for K IS (inhibition constant) / mode of inhibition: L-DOPA substrate; for K IS (inhibition constant): from intercept of Lineweaver-Burk plots; for mode of inhibition: Lineweaver-Burk plot
T1 construct: Each well of a 96-well plate contained 40 μg of lysate protein; endogenous in cells; host or cells: B16 melanoma cells (lysate)
T1 sequence (P11344 19-533): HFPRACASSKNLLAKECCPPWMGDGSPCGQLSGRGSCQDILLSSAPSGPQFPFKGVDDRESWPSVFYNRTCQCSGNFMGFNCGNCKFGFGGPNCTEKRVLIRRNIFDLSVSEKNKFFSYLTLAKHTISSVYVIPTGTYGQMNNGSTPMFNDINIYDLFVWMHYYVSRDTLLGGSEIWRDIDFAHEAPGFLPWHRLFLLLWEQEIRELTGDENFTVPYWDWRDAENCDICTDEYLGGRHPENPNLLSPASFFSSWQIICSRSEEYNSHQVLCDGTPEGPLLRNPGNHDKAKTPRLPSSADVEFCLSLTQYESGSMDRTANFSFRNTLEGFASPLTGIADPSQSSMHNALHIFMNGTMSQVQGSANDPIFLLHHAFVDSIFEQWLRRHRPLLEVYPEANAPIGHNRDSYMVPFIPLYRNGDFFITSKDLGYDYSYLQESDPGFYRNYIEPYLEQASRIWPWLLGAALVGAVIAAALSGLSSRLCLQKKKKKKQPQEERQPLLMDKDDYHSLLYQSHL
Description: The cells were treated with test compounds as described above for the determination of tyrosinase activity. […] After incubation at 37°C for 30 min, the absorbance was measured at 475 nm. The inhibition constants for compounds and inhibition type were calculated using Lineweaver-Burk plot. The Lineweaver-Burk plot was widely used to determine important terms in enzyme kinetics, such as K m and V max. The plot provided a useful graphical method for analysis of the Michaelis-Menten equation: V = V max [S]/(K m + [S]). It took the reciprocal gave Lineweaver-Burk plot: 1/V = (K m + [S])/V max [S] = ((K m/V max)(1/ [S])) + (1/V max), where V is the reaction velocity (the reaction rate), K m is the Michaelis-Menten constant, V max is the maximum reaction velocity, and [S] is the substrate concentration. The y-intercept of such a graph was equivalent to the inverse of V max; the x-intercept of the graph represents −1/K m. It also gave a quick, visual impression of the different forms of enzyme inhibition. The inhibition constant (K I or K IS) was generated from the slope of the apparent […]/V max or 1/V max versus the concentrations of compounds.

[7] = target: T1, tyrosinase in B16 melanoma cells; experiment: as above; type: biochemical; conditions: read-out: AC50, negative inhibition (acceleration) effect on tyrosinase
[8] = test system: Mushroom tyrosinase; experiment: cell-free mushroom tyrosinase assay of fractions (L-Tyr substrate); type: biochemical; conditions: L-Tyr as substrate, fractions at 0-12 μg/mL
Description: Mushroom tyrosinase and L-Tyr were reconstituted in 50 mM Na2HPO4-NaH2PO4 buffer (pH 6.8) at 1000 U/mL and 2.5 mM, respectively. A mixture of 60 μL of 50 mM Na2HPO4-NaH2PO4 buffer (pH 6.8) and 100 μL L-Tyr was designated as solution 1 (control group). […] Solutions 1 and 2 were added to 40 μL tyrosinase for 6 min reaction time at 37°C, individually. Absorbance of the resulting solutions was recorded every min by Beckman TU-1810 spectrophotometer at 475 nm. One unit of tyrosinase activity was arbitrarily defined as a rate of increase of 1 absorbance unit per min in the initial linear region of a plot of absorbance against time. The tyrosinase activity determined by the increasing absorbance at 475 nm accompanying by the oxidation of the substrates was calculated as the following formula [20]: (1) Tyrosinase activity %=A2/A1×100, where A1 is absorbance at 475 nm with solutions 1 and tyrosinase and A2 is absorbance at 475 nm with solutions 2 and tyrosinase.

[9] = 100 μM, 72 h, percentage of controls (mean ± SD), read-out: Cell viability
[10] = 200 μM, 72 h, percentage of controls (mean ± SD), read-out: Cell viability
[11] = 400 μM, 72 h, percentage of controls (mean ± SD), read-out: Cell viability
[12] = 100 μM, control set as 0% (mean ± SD)
[13] = 200 μM, control set as 0% (mean ± SD)
[14] = 400 μM, control set as 0% (mean ± SD)
[15] = absence of α-MSH stimulation, 72 h
[16] = α-MSH-stimulated (100 μM α-MSH), 72 h
[17] = α-MSH-stimulated (100 μM α-MSH)
[18] = B16 melanoma cells, 100 μM, 72 h, percentage of controls (mean ± SD), read-out: Cell viability
[19] = B16 melanoma cells, 200 μM, 72 h, percentage of controls (mean ± SD), read-out: Cell viability
[20] = B16 melanoma cells, 400 μM, 72 h, percentage of controls (mean ± SD), read-out: Cell viability

SMILES | Apoptosis rate [3, 12] | Apoptosis rate [3, 13] | Apoptosis rate [3, 14] | effect on cellular tyrosinase activity [4, 15] | effect on cellular tyrosinase activity [4, 16] | effect on cellular melanin content ([5]; absence of α-MSH stimulation) | effect on cellular melanin content [5, 17] | viability at 72 h, 100 µM [1, 18] | viability at 72 h, 200 µM [1, 19] | viability at 72 h, 400 µM [1, 20] | cytotoxic effect [2] | further results
C=C(C)[C@@H]1CC[C@]2(CO)CC[C@]3(C)[C@H](CC[C@@H]4[C@@]5(C)CC[C@H](O)C(C)(C)[C@@H]5CC[C@]43C)[C@@H]12 [Fa-a, betulin] | 9.01 ± 2.21% | 12.21 ± 3.03% | 15.31 ± 2.90% | significantly reduced cellular tyrosinase activity | able to inhibit the increase in cellular tyrosinase activity | reduced cellular melanin content | reduced cellular melanin content |  |  |  |  | viability at 72 h, 100 µM [1, 9]: 88.3 ± 3.21%; viability at 72 h, 200 µM [1, 10]: 75.1 ± 2.65%; viability at 72 h, 400 µM [1, 11]: 65.3 ± 4.41%; reduction of viable cells [2]: 34.68%; cytotoxic activity (reduction of viable cells) [2]: 11.69%; inhibition at 400 µM ([4]; B16, 400 μM, 72 h, absence of α-MSH): 30%; IC50 [6]: 5.13 µM; Ki [6]: 0.4 µM; K IS (inhibition constant) [6]: 0.4 µM; mode of inhibition [6]: noncompetitive inhibitor; mode of inhibition ([6]; listed as Betulin): noncompetitive inhibition
CC(C)=CCC[C@@H](C(=O)O)[C@H]1CC[C@@]2(C)C3=C(CC[C@]12C)[C@@]1(C)CC[C@H](O)C(C)(C)[C@@H]1CC3 [Fa-b, trametenolic acid] | 5.11 ± 4.01% | 6.51 ± 3.31% | 10.09 ± 4.31% | significantly reduced cellular tyrosinase activity | able to inhibit the increase in cellular tyrosinase activity | reduced cellular melanin content | reduced cellular melanin content |  |  |  |  | viability at 72 h, 100 µM [1, 9]: 96.5 ± 3.08%; viability at 72 h, 200 µM [1, 10]: 85.3 ± 4.13%; viability at 72 h, 400 µM [1, 11]: 70 ± 2.05%; reduction of viable cells [2]: 29.98%; cytotoxic activity (reduction of viable cells) [2]: 4.55%; inhibition at 400 µM ([4]; B16, 72 h): 23%; IC50 [6]: 7.25 µM; Ki [6]: 0.9 µM; K IS (inhibition constant) [6]: 0.5 µM; mode of inhibition [6]: mixed inhibitor; mode of inhibition ([6]; listed as trametenolic acid): mixed inhibition
CC(C)=CC[C@@H](O)[C@@H](C)[C@H]1CC[C@@]2(C)C3=C(CC[C@]12C)[C@@]1(C)CC[C@H](O)C(C)(C)[C@@H]1CC3 [Fb-a, inotodiol] | 3.91 ± 3.27% | 5.10 ± 2.61∗ % | 6.07 ± 3.53∗∗ % |  | significantly increased melanin content and cellular tyrosinase activity | significantly increased melanin content and cellular tyrosinase activity | significantly increased melanin content and cellular tyrosinase activity | 99.3 ± 1.53% | 99.4 ± 1.41% | 98.2 ± 1.35% | a little or no cytotoxic effect | increase of cellular tyrosinase activity ([4]; 400 μM, 72 h, absence of α-MSH): 21.24%; AC50 [6]: 9.74 µM
CC(C)=CCC[C@@H](C)[C@H]1CC[C@@]2(C)C3=C(CC[C@]12C)[C@@]1(C)CC[C@H](O)C(C)(C)[C@@H]1CC3 [Fb-b, lanoserol] | 0.31 ± 4.37∗∗∗ % | 2.62 ± 3.33∗∗∗ % | 5.12 ± 2.35∗ % |  | significantly increased melanin content and cellular tyrosinase activity | significantly increased melanin content and cellular tyrosinase activity | significantly increased melanin content and cellular tyrosinase activity | 100 ± 2.56% | 96.3 ± 2.61% | 94.6 ± 3.03% | a little or no cytotoxic effect | increase of cellular tyrosinase activity ([4]; 400 μM, 72 h, absence of α-MSH): 18.21%; AC50 [7]: 8.43 µM
O=C(O)c1cccnc1 [Fc-a, nicotinie acid] | 10.12% and 10.12 ± 1.14% | 25.44% and 25.44 ± 1.53∗∗∗ % | 30.51% and 30.51 ± 1.11∗∗∗ % | slight or no inhibition |  |  |  | 73.5 ± 3.11% | 45.3 ± 2.56% | 40.5 ± 2.12% | highest cytotoxic effect in dose-dependent manner | 
CC(C(O)CCC(C)(C)O)[C@H]1CC[C@@]2(C)C3=C(CC[C@]12C)[C@@]1(C)CC[C@H](O)C(C)(C)[C@@H]1CC3 (stereo partly drawn) [Fd-a, 3β,22,25-trihydroxy-lanosta-8-ene] |  |  |  | slight or no inhibition |  |  |  |  |  |  |  | viability at 72 h, 100 µM [1]: 96.7 ± 1.01%; viability at 72 h, 200 µM [1]: 97.1 ± 1.12%; viability at 72 h, 400 µM [1]: 85 ± 1.51%; Apoptosis rate ([3]; mouse, 100 μM): 1.21 ± 2.31%; Apoptosis rate ([3]; mouse, 200 μM): 2.15 ± 3.92%
O=c1cc(CO)occ1O [kojic acid, Kojic acid, reference compound] | 9.45 ± 1.15% | 12.36 ± 1.19% | 15.05 ± 2.21% | reduced tyrosinase activity as well as melanin content | reduced tyrosinase activity as well as melanin content | reduced tyrosinase activity as well as melanin content | reduced tyrosinase activity as well as melanin content | 92.4 ± 4.41% | 86.1 ± 2.12% | 70.9 ± 3.12% |  | IC50, tyrosinase inhibitory activity [8]: 5.23 µg/mL (≈ 36.8 µM)
